Here are results for five compounds from patent US7223888B2, “Mu opioid receptor ligands: methods of use and synthesis” (President and Fellows of Harvard College, priority 2002, dated 2007).

Where two headings read alike, the source gives them in different places.

Assay [1] deals with T1, hMOR-1 (Homo sapiens, UniProt P35372).
T1 construct: purchased Amersham Biosciences; host or cells: stably transfected CHO cells (membrane preparation)
Nature of the assay: Opioid receptor competitive binding assay, MOR (3H-DAMGO). The note with it: Ki MOR, 3H-DAMGO, hMOR-1 stably transfected into CHO cells.

A further assay has as its target T2, hDOR-1 (Homo sapiens, UniProt P41143).
T2 construct: purchased Amersham Biosciences; host or cells: stably transfected HEK-293 cells (membrane preparation)
Nature of the assay: Opioid receptor competitive binding assay, DOR. The settings on record: for Ki DOR/Ki MOR: Table 13, selectivity for MOR versus DOR (footnote: 3H-DPDPE, hDOR-1).

The target of the next assay is T3, KOR (Cavia porcellus, UniProt P41144).
T3 construct: from tissue; host or cells: guinea pig cerebellum preparation
Nature of the assay: Opioid receptor competitive binding assay, KOR (3H-U-69,593). The settings on record: for Ki KOR/Ki MOR: Table 13, selectivity for MOR versus KOR. Details: species or system guinea pig.

In assay [2] the target is T1, hMOR-1. Nature of the assay: MOR GTP-γ-S assay (MOR activation). It is filed as biochemical. The settings on record: CHO membranes with hMOR-1; for % GTP-γ-35S bound: Table 15, compound 10 mM (footnote), percentage of DAMGO induced GTP-g-35S specific binding. How it is done:
MOR GTP-γ-S assay was run in the same 200 μL, 96 well format as the binding assay. Each microassay contained experimental compound, 0.04 nM GTP-γ-^35S, 9 μM GDP, and about 0.02 nM MOR (from stably transfected CHO cells), in assay buffer (50 mM Tris-HCl, 3 mM MgCl2, 0.2 mM EGTA, 100 mM NaCl, pH 7.4). The assays were incubated for two to three hours at room temperature, then filtered onto a filter plate. The plate was dried; scintillation fluid was added, and the wells were counted for ^35S. Blank assays were run to determine non-specific binding. […] The results were averaged; the non-specific counts were subtracted, and the resulting value was expressed as a percent of the value obtained for DAMGO. The error reported is two standard deviations from the mean of the quadruplicate experiment. The values were compared using one way Anova with Tukey's post-hoc analysis.

Where [3] appears, read: Table 4, errors 95% confidence interval.
[4] abbreviates: Ki DOR, Table 7, 3H-diprenorphine, hDOR-1 stably transfected into HEK-293 cells, errors two standard deviations.
[5] abbreviates: Ki KOR, Table 10, 3H-U-69,593, guinea pig cerebellum preparation, errors two standard deviations.

As to `Cc1cc(O)cc(C)c1CC(N)C(O)C/C=C/C(O)C(Cc1ccccc1)C(=O)NC(Cc1ccccc1)C(N)=O` (single isomer, unassigned) [(S,S,R,R)-25, 7-(1-Carbamoyl-2-phenyl-ethylcarbamoyl)-2,6-dihydroxy-1-(4-hydroxy-2,6-dimethyl-benzyl)-8-phenyl-oct-4-enyl-ammonium], the figures for the Ki on hMOR-1 [1] (setting [3]), on hDOR-1 (setting [4]) and at KOR (setting [5]) were 0.42 ± 0.09 nM, 36 ± 6 nM and 21 ± 4 nM, respectively. For the same compound, the “Ki DOR/Ki MOR” value on hDOR-1 was determined as 86. Moreover, the “Ki KOR/Ki MOR” value on KOR worked out at 49. Also, the “% GTP-γ-35S bound” value on hMOR-1 [2] worked out at 75 ± 11%.

Take `Cc1cc(O)cc(C)c1CC(N)C(O)C/C=C/C(O)C(Cc1ccccc1)C(=O)NCCc1ccccc1` (single isomer, unassigned) [(S,S,R,R)-26, 2,6-Dihydroxy-1-(4-hydroxy-2,6-dimethyl-benzyl)-7-phenethylcarbamoyl-8-phenyl-oct-4-enyl-ammonium]: the inhibitory constant (Ki) on hMOR-1 [1] (setting [3]) is 0.37 ± 0.13 nM; on hDOR-1 (setting [4]), 26 ± 3 nM; on KOR (setting [5]) it was 64 ± 14 nM. Also, the “Ki DOR/Ki MOR” value at hDOR-1 is reported as 70. The “Ki KOR/Ki MOR” value at KOR came to 170. Besides, the “% GTP-γ-35S bound” value at hMOR-1 [2] amounted to 48 ± 9%.

As to `NC(=O)C(Cc1ccccc1)NC(=O)C(Cc1ccccc1)C(O)/C=C/C(O)CC(N)Cc1ccc(O)cc1` (single isomer, unassigned) [(S, S, R, S)-43, 7-(1-Carbamoyl-2-phenyl-ethylcarbamoyl)-3,6-dihydroxy-1-(4-hydroxy-benzyl)-8-phenyl-oct-4-enyl-ammonium], the Ki at hMOR-1 [1] (Table 5) turned out to be 14 ± 1 nM; at hDOR-1 (read-out: Ki DOR), 1200 ± 100 nM; at KOR (read-out: Ki KOR), 450 ± 60 nM. The “% GTP-γ-S bound” value on hMOR-1 [2] (Table 16, compound 10 μM, percentage of DAMGO induced GTP-γ-35S specific binding) is reported as 25 ± 5%.

Regarding `Cc1cc(O)cc(C)c1CC(N)C(O)C/C=C/C(O)C(Cc1ccccc1)C(=O)NCCc1ccccc1` (single isomer, unassigned) [(S,S,R,S)-26, 2,6-Dihydroxy-1-(4-hydroxy-2,6-dimethyl-benzyl)-7-phenethylcarbamoyl-8-phenyl-oct-4-enyl-ammonium], the Ki amounted to 0.64 ± 0.09 nM at hMOR-1 [1] (setting [3]), 120 ± 30 nM at hDOR-1 (setting [4]) and 60 ± 32 nM on KOR (setting [5]). Besides, the “Ki DOR/Ki MOR” value at hDOR-1 turned out to be 190. The “Ki KOR/Ki MOR” value on KOR is given as 94. The “% GTP-γ-35S bound” value at hMOR-1 [2] came out at 52 ± 6%.

For the compound `Cc1cc(O)cc(C)c1CC(N)C(O)C/C=C/C(O)C(Cc1ccccc1)C(=O)NCCc1ccccc1` (single isomer, unassigned) [(S,S,S,R)-26, 2,6-Dihydroxy-1-(4-hydroxy-2,6-dimethyl-benzyl)-7-phenethylcarbamoyl-8-phenyl-oct-4-enyl-ammonium], the inhibitory constant (Ki) came out at 0.29 ± 0.06 nM on hMOR-1 [1] (setting [3]), 99 ± 11 nM on hDOR-1 (setting [4]) and 42 ± 29 nM at KOR (setting [5]). In addition, at hDOR-1, the “Ki DOR/Ki MOR” value is on record as 340. Also, the “Ki KOR/Ki MOR” value at KOR was 140. Moreover, the “% GTP-γ-35S bound” value on hMOR-1 [2] worked out at 40 ± 3%.

By Ki is commonly meant a dissociation constant, usually derived from enzyme kinetics or from competition with a known ligand.
